According to PubChem BioAssay (NCI):
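Dose response: 5 concentrations. Exposure: 48 h. Format: 96-well plates. Endpoint: linear interpolation; highest concentration if not reached. TGI is the concentration that stops growth completely.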

What follows are compounds tested on K-562 leukemia (assay: NCI anticancer screen, dose series, 48 h).
`CC(=O)Oc1c(C)c2c(c3ncccc13)OC(C)C2` (stereo not given) showed a TGI of 35.5 µM. `COc1c2c(cc3c1C(=O)c1c(O)cccc1C3=O)CC(O)CC2` (stereo not given) was tested, and the TGI was over 100 µM.

These compounds were tested on MALME-3M melanoma (assay: NCI anticancer screen, dose series, 48 h).
`Cc1ccc(N=N/C(=N/NC(=O)c2cc(Cl)ccc2O)c2ccc(N(CCC#N)CCC#N)cc2C)cc1` was tested, and the TGI was 47.8 µM. For `O=C1C=Cc2c(Br)sc(Br)c21`, the TGI was 64.6 µM. For `CN(C)CCNc1ccc([N+](=O)[O-])c2sc3ccccc3c(=O)c12`, the TGI was 17.9 µM. `O=C(C1OC1c1ccc(Cl)cc1)C12CC3CC(CC(C3)C1)C2` (stereo not given) showed a TGI of 69.8 µM. Work on `NC1c2c(Br)sc(N3CCCC3)c2C(=O)C1O` (stereo not given) yielded a TGI of over 50 µM. `COc1cccc(-c2nc3ccccc3c(=O)[nH]2)c1` showed a TGI of 52.5 µM. In the case of `Cc1ccc(Cc2n[nH]c(=O)[nH]2)cc1`, the TGI was over 100 µM. `C/C=C/C(C#N)(/C=C/c1ccccc1)OP1(=O)OC(c2ccccc2)C(C)N1C` (stereo not given) gave a TGI of 38.8 µM. `S=C(N1CCN(c2ccc(Cl)c(Cl)c2)CC1)N1CCN(c2ccc(Cl)c(Cl)c2)CC1` gave a TGI of 28.1 µM. `CCOC(=O)c1c(SC(=O)c2ccc(C(C)(C)C)cc2)n(-c2ccccc2)c(=S)n(-c2ccccc2)c1=O` was tested, and the TGI was over 100 µM. With `CC1OC(OC2C(O[C@H]3CC[C@@H]4C(=CC[C@@H]5[C@@]4(C)C(=O)C[C@]4(C)[C@@H]([C@H](C)CC[C@@H](O)C(C)(C)O)CC[C@@]54C)C3(C)C)OC(CO)C(O)C2O)C(O)C(O)C1O` (stereo not given in full) the TGI was over 100 µM. With `Cc1nnc2n1N=C(c1ccccc1)/C(=C/c1ccc(-c3ccc(Cl)cc3)o1)S2` the TGI was 33.6 µM. For `COC1(c2ccc(Cl)cc2)SC=C(C)n2c1noc2=O` (stereo not given), the TGI was over 100 µM. Work on `N=C(N)c1ccc(/C=C/c2ccc(C(=N)N)cc2)cc1` yielded a TGI of over 100 µM. Compound `CC(=O)Oc1c(C)c2c(c3ncccc13)OC(C)C2` (stereo not given) has a TGI of 30.2 µM. `COc1c2c(cc3c1C(=O)c1c(O)cccc1C3=O)CC(O)CC2` (stereo not given) gave a TGI of over 100 µM.

The compounds below were run on M14 melanoma (assay: NCI anticancer screen, dose series, 48 h).
Work on `Cc1ccc(N=N/C(=N/NC(=O)c2cc(Cl)ccc2O)c2ccc(N(CCC#N)CCC#N)cc2C)cc1` yielded a TGI of over 100 µM. `Cc1ccc2c(c1)[nH]c(=S)n2C=C(C(N)=O)C(N)=O` was tested, and the TGI was over 100 µM. Compound `O=C1C=Cc2c(Br)sc(Br)c21` has a TGI of 84.4 µM. `CN(C)CCNc1ccc([N+](=O)[O-])c2sc3ccccc3c(=O)c12` was tested, and the TGI was 46.8 µM. In the case of `O=C(C1OC1c1ccc(Cl)cc1)C12CC3CC(CC(C3)C1)C2` (stereo not given), the TGI was 38.1 µM. Work on `NC1c2c(Br)sc(N3CCCC3)c2C(=O)C1O` (stereo not given) yielded a TGI of over 50 µM. Compound `COc1cccc(-c2nc3ccccc3c(=O)[nH]2)c1` has a TGI of over 100 µM. `Cc1ccc(Cc2n[nH]c(=O)[nH]2)cc1` showed a TGI of over 100 µM. In the case of `C/C=C/C(C#N)(/C=C/c1ccccc1)OP1(=O)OC(c2ccccc2)C(C)N1C` (stereo not given), the TGI was 37.1 µM. Work on `S=C(N1CCN(c2ccc(Cl)c(Cl)c2)CC1)N1CCN(c2ccc(Cl)c(Cl)c2)CC1` yielded a TGI of 32.3 µM. Compound `CCOC(=O)c1c(SC(=O)c2ccc(C(C)(C)C)cc2)n(-c2ccccc2)c(=S)n(-c2ccccc2)c1=O` has a TGI of over 100 µM. `CC1OC(OC2C(O[C@H]3CC[C@@H]4C(=CC[C@@H]5[C@@]4(C)C(=O)C[C@]4(C)[C@@H]([C@H](C)CC[C@@H](O)C(C)(C)O)CC[C@@]54C)C3(C)C)OC(CO)C(O)C2O)C(O)C(O)C1O` (stereo not given in full) was tested, and the TGI was over 100 µM. Compound `Cc1ccc(-c2n[nH]c(Cc3nc(-c4ccc(C)cc4)n[nH]3)n2)cc1` has a TGI of over 100 µM. In the case of `Cc1nnc2n1N=C(c1ccccc1)/C(=C/c1ccc(-c3ccc(Cl)cc3)o1)S2`, the TGI was 36.6 µM. Compound `COC1(c2ccc(Cl)cc2)SC=C(C)n2c1noc2=O` (stereo not given) has a TGI of over 100 µM. `N=C(N)c1ccc(/C=C/c2ccc(C(=N)N)cc2)cc1` showed a TGI of over 100 µM. `NC1CC(=O)c2cscc21` (stereo not given) gave a TGI of over 100 µM. In the case of `CC(=O)Oc1c(C)c2c(c3ncccc13)OC(C)C2` (stereo not given), the TGI was 28.5 µM. `COc1c2c(cc3c1C(=O)c1c(O)cccc1C3=O)CC(O)CC2` (stereo not given) showed a TGI of over 100 µM.

What follows are compounds tested on HOP-62 NSCLC (assay: NCI anticancer screen, dose series, 48 h).
`Cc1ccc(N=N/C(=N/NC(=O)c2cc(Cl)ccc2O)c2ccc(N(CCC#N)CCC#N)cc2C)cc1` showed a TGI of over 100 µM. `Cc1ccc2c(c1)[nH]c(=S)n2C=C(C(N)=O)C(N)=O` showed a TGI of over 100 µM. `O=C1C=Cc2c(Br)sc(Br)c21` was tested, and the TGI was 84.8 µM. For `CN(C)CCNc1ccc([N+](=O)[O-])c2sc3ccccc3c(=O)c12`, the TGI was 8.36 µM. Compound `CN1Cc2ccccc2S(=O)(=O)n2cccc2C1=O` has a TGI of over 100 µM. `O=C(C1OC1c1ccc(Cl)cc1)C12CC3CC(CC(C3)C1)C2` (stereo not given) was tested, and the TGI was 56.5 µM. For `COc1cccc(-c2nc3ccccc3c(=O)[nH]2)c1`, the TGI was 37.1 µM. For `Cc1ccc(Cc2n[nH]c(=O)[nH]2)cc1`, the TGI was over 100 µM. `C/C=C/C(C#N)(/C=C/c1ccccc1)OP1(=O)OC(c2ccccc2)C(C)N1C` (stereo not given) was tested, and the TGI was 36.1 µM. `S=C(N1CCN(c2ccc(Cl)c(Cl)c2)CC1)N1CCN(c2ccc(Cl)c(Cl)c2)CC1` showed a TGI of 26.5 µM. For `CCOC(=O)c1c(SC(=O)c2ccc(C(C)(C)C)cc2)n(-c2ccccc2)c(=S)n(-c2ccccc2)c1=O`, the TGI was over 100 µM. With `CC1OC(OC2C(O[C@H]3CC[C@@H]4C(=CC[C@@H]5[C@@]4(C)C(=O)C[C@]4(C)[C@@H]([C@H](C)CC[C@@H](O)C(C)(C)O)CC[C@@]54C)C3(C)C)OC(CO)C(O)C2O)C(O)C(O)C1O` (stereo not given in full) the TGI was over 100 µM. With `Cc1ccc(-c2n[nH]c(Cc3nc(-c4ccc(C)cc4)n[nH]3)n2)cc1` the TGI was over 100 µM. Work on `Cc1nnc2n1N=C(c1ccccc1)/C(=C/c1ccc(-c3ccc(Cl)cc3)o1)S2` yielded a TGI of 49.8 µM. In the case of `N=C(N)c1ccc(/C=C/c2ccc(C(=N)N)cc2)cc1`, the TGI was over 100 µM. `NC1CC(=O)c2cscc21` (stereo not given) gave a TGI of over 100 µM. Work on `CC(=O)Oc1c(C)c2c(c3ncccc13)OC(C)C2` (stereo not given) yielded a TGI of 30.9 µM. With `COc1c2c(cc3c1C(=O)c1c(O)cccc1C3=O)CC(O)CC2` (stereo not given) the TGI was 46 µM.

What follows are compounds tested on LOX IMVI melanoma (assay: NCI anticancer screen, dose series, 48 h).
Work on `Cc1ccc2c(c1)[nH]c(=S)n2C=C(C(N)=O)C(N)=O` yielded a TGI of over 100 µM. `O=C1C=Cc2c(Br)sc(Br)c21` showed a TGI of 48.4 µM. With `CN1Cc2ccccc2S(=O)(=O)n2cccc2C1=O` the TGI was over 100 µM. With `O=C(C1OC1c1ccc(Cl)cc1)C12CC3CC(CC(C3)C1)C2` (stereo not given) the TGI was 16.6 µM. `NC1c2c(Br)sc(N3CCCC3)c2C(=O)C1O` (stereo not given) showed a TGI of over 50 µM. For `COc1cccc(-c2nc3ccccc3c(=O)[nH]2)c1`, the TGI was over 100 µM. `Cc1ccc(Cc2n[nH]c(=O)[nH]2)cc1` showed a TGI of over 100 µM. `C/C=C/C(C#N)(/C=C/c1ccccc1)OP1(=O)OC(c2ccccc2)C(C)N1C` (stereo not given) gave a TGI of 35 µM. In the case of `CCOC(=O)c1c(SC(=O)c2ccc(C(C)(C)C)cc2)n(-c2ccccc2)c(=S)n(-c2ccccc2)c1=O`, the TGI was over 100 µM. In the case of `CC1OC(OC2C(O[C@H]3CC[C@@H]4C(=CC[C@@H]5[C@@]4(C)C(=O)C[C@]4(C)[C@@H]([C@H](C)CC[C@@H](O)C(C)(C)O)CC[C@@]54C)C3(C)C)OC(CO)C(O)C2O)C(O)C(O)C1O` (stereo not given in full), the TGI was over 100 µM. Work on `Cc1ccc(-c2n[nH]c(Cc3nc(-c4ccc(C)cc4)n[nH]3)n2)cc1` yielded a TGI of over 100 µM. For `COC1(c2ccc(Cl)cc2)SC=C(C)n2c1noc2=O` (stereo not given), the TGI was over 100 µM. Work on `N=C(N)c1ccc(/C=C/c2ccc(C(=N)N)cc2)cc1` yielded a TGI of over 100 µM. Work on `NC1CC(=O)c2cscc21` (stereo not given) yielded a TGI of over 100 µM. Compound `COc1c2c(cc3c1C(=O)c1c(O)cccc1C3=O)CC(O)CC2` (stereo not given) has a TGI of over 100 µM.

What follows are compounds tested on DU-145 prostate (assay: NCI anticancer screen, dose series, 48 h).
Work on `Cc1ccc(N=N/C(=N/NC(=O)c2cc(Cl)ccc2O)c2ccc(N(CCC#N)CCC#N)cc2C)cc1` yielded a TGI of over 100 µM. In the case of `Cc1ccc2c(c1)[nH]c(=S)n2C=C(C(N)=O)C(N)=O`, the TGI was over 100 µM. `O=C1C=Cc2c(Br)sc(Br)c21` was tested, and the TGI was over 100 µM. `CN(C)CCNc1ccc([N+](=O)[O-])c2sc3ccccc3c(=O)c12` showed a TGI of 31.5 µM. `CN1Cc2ccccc2S(=O)(=O)n2cccc2C1=O` was tested, and the TGI was over 100 µM. For `O=C(C1OC1c1ccc(Cl)cc1)C12CC3CC(CC(C3)C1)C2` (stereo not given), the TGI was over 100 µM. `NC1c2c(Br)sc(N3CCCC3)c2C(=O)C1O` (stereo not given) showed a TGI of over 50 µM. `COc1cccc(-c2nc3ccccc3c(=O)[nH]2)c1` showed a TGI of over 100 µM. Work on `Cc1ccc(Cc2n[nH]c(=O)[nH]2)cc1` yielded a TGI of over 100 µM. `C/C=C/C(C#N)(/C=C/c1ccccc1)OP1(=O)OC(c2ccccc2)C(C)N1C` (stereo not given) gave a TGI of 90.1 µM. Compound `S=C(N1CCN(c2ccc(Cl)c(Cl)c2)CC1)N1CCN(c2ccc(Cl)c(Cl)c2)CC1` has a TGI of 28.1 µM. `CCOC(=O)c1c(SC(=O)c2ccc(C(C)(C)C)cc2)n(-c2ccccc2)c(=S)n(-c2ccccc2)c1=O` was tested, and the TGI was over 100 µM. Compound `CC1OC(OC2C(O[C@H]3CC[C@@H]4C(=CC[C@@H]5[C@@]4(C)C(=O)C[C@]4(C)[C@@H]([C@H](C)CC[C@@H](O)C(C)(C)O)CC[C@@]54C)C3(C)C)OC(CO)C(O)C2O)C(O)C(O)C1O` (stereo not given in full) has a TGI of over 100 µM. In the case of `Cc1ccc(-c2n[nH]c(Cc3nc(-c4ccc(C)cc4)n[nH]3)n2)cc1`, the TGI was over 100 µM. `Cc1nnc2n1N=C(c1ccccc1)/C(=C/c1ccc(-c3ccc(Cl)cc3)o1)S2` was tested, and the TGI was 38.9 µM. `COC1(c2ccc(Cl)cc2)SC=C(C)n2c1noc2=O` (stereo not given) gave a TGI of over 100 µM. `N=C(N)c1ccc(/C=C/c2ccc(C(=N)N)cc2)cc1` gave a TGI of over 100 µM. `NC1CC(=O)c2cscc21` (stereo not given) gave a TGI of over 100 µM. In the case of `CC(=O)Oc1c(C)c2c(c3ncccc13)OC(C)C2` (stereo not given), the TGI was 29.8 µM. Compound `COc1c2c(cc3c1C(=O)c1c(O)cccc1C3=O)CC(O)CC2` (stereo not given) has a TGI of over 100 µM.
